Drawing on US6765003B1, “3-Arylsulfonyl-2 (substituted methyl) propanoic acid derivatives as matrix metalloproteinase inhibitors” (Pharmacia Italia, SpA, priority 1999, dated 2004), this text covers Ki for 14 molecules.

The target in assay [1] is T1, Human gelatinase-A (MMP-2) (Homo sapiens, UniProt P08253).
T1 sequence (P08253 110-660): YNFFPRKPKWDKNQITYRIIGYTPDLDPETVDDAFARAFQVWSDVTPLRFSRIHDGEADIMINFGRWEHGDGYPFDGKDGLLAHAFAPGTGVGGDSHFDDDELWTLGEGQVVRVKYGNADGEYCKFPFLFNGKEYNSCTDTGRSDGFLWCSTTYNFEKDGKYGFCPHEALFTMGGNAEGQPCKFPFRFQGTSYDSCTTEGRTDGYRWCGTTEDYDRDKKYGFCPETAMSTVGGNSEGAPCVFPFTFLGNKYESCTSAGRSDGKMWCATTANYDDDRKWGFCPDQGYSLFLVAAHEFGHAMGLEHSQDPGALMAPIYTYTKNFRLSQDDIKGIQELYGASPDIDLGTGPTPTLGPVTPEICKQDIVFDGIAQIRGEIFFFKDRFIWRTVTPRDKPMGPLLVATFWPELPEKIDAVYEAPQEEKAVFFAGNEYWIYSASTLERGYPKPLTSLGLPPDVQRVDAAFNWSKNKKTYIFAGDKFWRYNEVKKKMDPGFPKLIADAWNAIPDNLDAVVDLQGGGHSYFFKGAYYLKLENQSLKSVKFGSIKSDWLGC
In words: MMP inhibition, internal fluorescence quenching method (MCA peptide substrate). The format is biochemical. Here is the method:
(§1) The inhibitory activity of the compounds of the present invention was evaluated in vitro against one or more of the MMP enzymes (gelatinases, collagenases, stromelysins) using the internal fluorescence quenching method. The assay method is based on the hydrolysis of the MMP substrate, MCA-Pro-Leu-Gly-Leu-DPA-Ala—Arg-NH2 at 37° C. (see Knight, C. G. et al., FEBS Lett. 296:263-266, 1992). The enzymes cleave at the Gly-Leu bond removing the internally quenching DPA group. The release of the highly fluorescent peptide MCA-Pro-Leu was monitored with a LS50 Perkin Elmer fluorimeter equipped with a Peltier-thermostated cell holder using an excitation wavelength of 326 nm and an emission wavelenght of 398 nm. Slis were set at 14/14. Proper determination of steady-state rates of substrate cleavage required a preincubation at 37° C. of 15 minutes to allow for complete equilibration of the enzyme-inhibitor complex. […] Rates of substrate hydrolysis, expressed as fluorescence arbitrary units per minute, were calculated by least-square analysis of the steady-state linear progression curves. The steady-state rates were fitted to the Michaelis equation describing competitive inhibition; in particular, Ki,app were determined by fining the data to the tight-binding equation of Morrison (Biochem. Biophys. Acta, 185:269-286, 1969) by non-linear methods.
(§2) Human gelatinase-A (MMP-2) was obtained as penzyme (72 kDa) and was activated with 1 mM 4-aminophenylmercuric acetate for 30 min at 37° C. immediately prior to use. The inhibitor was diluted into the assay from a stock solution in 100% DMSO, and controls substituted an equal volume of DMSO so that the final DMSO concentration from inhibitor and substrate dilution in all assays was 1%. The concentration of MMP-2 was 19.2 picoM. For compounds of formula (I) where X is —OH, the assay buffer was 50 mM Tris/HCl pH 6.5 containing 150 mM NaCl, 10 mM CaCl2, 0.01 mM ZnCl2 and 0.05% Brij35 (Protocol A). Other conditions were as stated above.
The compounds of formula (I) where X is —NHOH were tested against MMP-2 and MMP-1 under the conditions stated above, but the assay solution was buffered at pH 7.4 (Protocol B).

Assay [2] concerns the target T2, Human fibroblast collagenase (MMP-1) (Homo sapiens, UniProt P03956).
T2 sequence (P03956 101-269): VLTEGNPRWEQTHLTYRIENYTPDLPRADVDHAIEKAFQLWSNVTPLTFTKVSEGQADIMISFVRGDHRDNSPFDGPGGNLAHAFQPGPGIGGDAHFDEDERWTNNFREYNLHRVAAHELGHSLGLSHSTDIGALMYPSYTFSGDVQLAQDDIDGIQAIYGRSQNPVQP
Described as above. Format: biochemical. As to the method:
as §1, §2
Assay conditions were the same as above, but enzyme concentration was 200 picoM.

The mark [3] stands for this setting: Protocol A: Tris/HCl pH 6.5, 37° C., MMP-2 19.2 picoM, substrate 3 μM, carboxylic acids, read-out: MMP-2 Ki.
The mark [4] stands for this setting: Protocol A: pH 6.5, 37° C., enzyme 200 picoM, substrate 3 μM, carboxylic acids, read-out: MMP-1 Ki.

Structures can show the parent of a compound that is named as a salt. Where two headings read alike, the source gives them in different places.

Take `CN1C(=O)N(CC(CS(=O)(=O)c2ccc(-c3ccc(Cl)cc3)cc2)C(=O)O)C(=O)C1(C)C` (racemic) [Example 5, 3-[(4′-chloro[1,1′-biphenyl]-4-yl)sulfonyl]-2-[(3,4,4-trimethyl-2,5-dioxo-1-imidazolidinyl)methyl]propanoic acid]: the inhibition constant (Ki) in assay [1] (setting [3]) was 5.5 nM; in assay [2] (setting [4]), more than 2000 nM.

`O=C(O)C(CSc1ccccc1)CS(=O)(=O)c1ccc(-c2ccc(Cl)cc2)cc1` (single isomer, unassigned) [3, Isomer 1]: the Ki in assay [1] (setting [3]) was 6 nM.

`O=C(O)C(CSc1ccccc1)CS(=O)(=O)c1ccc(-c2ccc(Cl)cc2)cc1` (single isomer, unassigned) [3, Isomer 2]: the Ki in assay [1] (setting [3]) is 660 nM.

As for `CN1C(=O)N(CC(CS(=O)(=O)c2ccc(-c3ccc(Cl)cc3)cc2)C(=O)O)C(=O)C1(C)C` (single isomer, unassigned) [6, Isomer 1], the Ki in assay [1] (setting [3]) is 3.7 nM; in assay [2] (setting [4]) it was 3600 nM.

In the case of `CN1C(=O)N(CC(CS(=O)(=O)c2ccc(-c3ccc(Cl)cc3)cc2)C(=O)O)C(=O)C1(C)C` (single isomer, unassigned) [6, Isomer 2], the Ki in assay [1] (setting [3]) came out at 50 nM.

With `O=C(NO)C(CSc1ccccc1)CS(=O)(=O)c1ccc(-c2ccc(Cl)cc2)cc1` (centres unmarked) [Example 4, 3-[(4′-chloro[1,1′-biphenyl]-4-yl)sulfonyl]-N-hydroxy-2-[(phenylsulfanyl)methyl]propanamide], the Ki in assay [1] (Protocol B: pH 7.4, 37° C., hydroxamic acids (X is —NHOH), read-out: MMP-2 Ki (picoM)) worked out at 0.159 nM; in assay [2] (Protocol B: pH 7.4, 37° C., hydroxamic acids (X is —NHOH), read-out: MMP-1 Ki (picoM)), 149 nM.

In the case of `O=C(Nc1ccc(S(=O)(=O)CC(CSc2cccs2)C(=O)O)cc1)c1ccccc1` (centres unmarked) [Example 14, 3-[[4-(Benzoylamino)phenyl]sulfonyl]-2-[(2-thienylsulfanyl)methyl]propanoic acid], the Ki in assay [1] (setting [3]) is 8 nM.

Consider `CCCCN1C(=O)CN(CC(CS(=O)(=O)c2ccc(-c3ccc(Cl)cc3)cc2)C(=O)O)C1=O` (centres unmarked) [Example 18, 3-[(4′-chloro[1,1′-biphenyl]-4-yl)sulfonyl]-2-[(3-butyl-2,4-dioxo-1-imidazolidinyl)methyl]propanoic acid], for which the Ki in assay [1] (setting [3]) came out at 7.8 nM.

Turning to `N#Cc1ccc(-c2ccc(S(=O)(=O)CC(CSc3ccccc3)C(=O)O)cc2)cc1` (centres unmarked) [Example 19, 3-[(4′-cyano[1,1′-biphenyl]-4-yl)sulfonyl]-2-[(phenylsulfanyl)methyl]propanoic acid], the inhibition constant Ki in assay [1] (setting [3]) was 17 nM.

In the case of `Cn1ccnc1SCC(CS(=O)(=O)c1ccc(-c2ccc(Cl)cc2)cc1)C(=O)O` (centres unmarked) [Example 25, 3-[(4′-chloro[1,1′-biphenyl]-4-yl)sulfonyl]-2-[[(1-methyl-1H-imidazol-2-yl)sulfanyl]methyl]propanoic acid], the Ki in assay [1] (setting [3]) was 16 nM.

Take `N#Cc1ccc(-c2ccc(S(=O)(=O)CC(COc3ccccc3)C(=O)O)cc2)cc1` (centres unmarked) [Example 29, 3-[(4′-cyano[1,1′-biphenyl]-4-yl)sulfonyl]-2-(phenoxymethyl)propanoic acid, sodium salt]: the Ki in assay [1] (setting [3]) stood at 21.5 nM.

As to `O=C(O)C(COc1ccccc1CO)CS(=O)(=O)c1ccc(-c2ccc(Cl)cc2)cc1` (centres unmarked) [Example 33, 3-[(4′-chloro[1,1′-biphenyl]-4-yl)sulfonyl]-2-[[2-(hydroxymethyl)phenoxy]-methyl]propanoic acid], the Ki in assay [1] (setting [3]) was determined as 15 nM.

Turning to `Cc1nnc(SCC(CS(=O)(=O)c2ccc(-c3ccc(Cl)cc3)cc2)C(=O)O)s1` (centres unmarked) [Example 36, 3-[(4′-chloro[1,1′-biphenyl]-4-yl)sulfonyl]-2-[[(S-methyl-1,3,4-thiadiazol-2-yl)sulfanyl]methyl]propanoic acid.], in assay [1] (setting [3]), the inhibition constant Ki is 33.4 nM.

With `O=C(O)C(CSc1nc2ccccc2[nH]1)CS(=O)(=O)c1ccc(-c2ccc(Cl)cc2)cc1` (centres unmarked) [Example 37, 3-[(4′-chloro[1,1′-biphenyl]-4-yl)sulfonyl]-2-[(1H-benzimidazol-2-yl-sulfanyl)methyl]-propanoic acid], the Ki in assay [1] (setting [3]) was 18.2 nM.
